# Like-named read-outs stand apart in the source and are kept apart here. Where a SMILES comes first, the peptide text is derived from it. Bridges are numbered along the chain shown (N, C = ends). [ ]: non-standard residue; d: D form. The star is where a group is joined. GdDOTA = Gd(III) DOTA conjugate, O=C([O-])CN1CCN(CC(=O)[O-])CCN(CC(=O)*)CCN(CC(=O)[O-])CC1.[Gd+3]; DOTA = O=C(O)CN1CCN(CC(=O)O)CCN(CC(=O)*)CCN(CC(=O)O)CC1; Pro(trans-4-F) = O=C(O)[C@@H]1C[C@@H](F)CN1; Pro(cis-4-F) = O=C(O)[C@@H]1C[C@H](F)CN1; Gly(cPent) = N[C@H](C(=O)O)C1CCCC1; NMeR = CN[C@@H](CCCNC(=N)N)C(=O)O; Hyp = O=C(O)[C@@H]1C[C@@H](O)CN1; 3Pal = N[C@@H](Cc1cccnc1)C(=O)O; Pentanoyl(4-Me) = CC(C)CCC(=O)*; Cit = NC(=O)NCCC[C@H](N)C(=O)O; NMeOrn = CN[C@@H](CCCN)C(=O)O; Aic = NC1(C(=O)O)Cc2ccccc2C1; Butoxycarbonyl = CCCCOC(=O)*; NMeK = CN[C@@H](CCCCN)C(=O)O; Dab = NCC[C@H](N)C(=O)O; Nva = CCC[C@H](N)C(=O)O; Hexanoyl = CCCCCC(=O)*; Pentanoyl = CCCCC(=O)*; Aib = CC(C)(N)C(=O)O
# Legend:
# [1] = target: T1, human uPAR (uPAR-Fc) (Homo sapiens, UniProt Q03405); experiment: Surface plasmon resonance (SPR) assay, single cycle kinetics; assay type: binding; settings: pKD category for uPAR SPR activity assay, uPAR-Fc on Protein A-Chip, 25°C; for Kd: read-out: pKD CAT (converted)
# T1 construct: comprising amino acids Leu23-Arg303 according to UniProt entry Q03405.1; purchased R&D Systems 10378-UK-100
# T1 sequence (Q03405 23-303): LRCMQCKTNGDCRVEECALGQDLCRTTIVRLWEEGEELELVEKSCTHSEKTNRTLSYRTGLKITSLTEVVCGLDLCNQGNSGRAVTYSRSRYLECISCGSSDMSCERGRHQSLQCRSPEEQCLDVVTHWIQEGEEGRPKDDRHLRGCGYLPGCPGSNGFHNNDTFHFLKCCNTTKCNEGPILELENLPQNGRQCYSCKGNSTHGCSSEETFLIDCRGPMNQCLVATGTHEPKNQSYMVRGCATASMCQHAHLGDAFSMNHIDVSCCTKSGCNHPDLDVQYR
# Method in brief: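 uPAR-Fc (Leu23-Arg303 extracellular domains, human IgG1 Fc) captured on Protein A chip to ~2000 RU; single-cycle kinetics at 25°C in HEPES running buffer pH 7.4 with 0.1% DMSO. KD from double-referenced sensorgrams fitted to 1:1 Langmuir model, reported as pKD.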
# [2] = target: T2, uPAR-expressing HEC-265 human endometrial adenocarcinoma cells (Homo sapiens, UniProt Q03405); experiment: Competitive FACS binding assay; settings: pIC50 category of FACS binding
# T2 construct: Cell surface uPAR-expressing HEC-265 human endometrial adenocarcinoma cells; host or cells: HEC-265
# T2 sequence (Q03405 23-335): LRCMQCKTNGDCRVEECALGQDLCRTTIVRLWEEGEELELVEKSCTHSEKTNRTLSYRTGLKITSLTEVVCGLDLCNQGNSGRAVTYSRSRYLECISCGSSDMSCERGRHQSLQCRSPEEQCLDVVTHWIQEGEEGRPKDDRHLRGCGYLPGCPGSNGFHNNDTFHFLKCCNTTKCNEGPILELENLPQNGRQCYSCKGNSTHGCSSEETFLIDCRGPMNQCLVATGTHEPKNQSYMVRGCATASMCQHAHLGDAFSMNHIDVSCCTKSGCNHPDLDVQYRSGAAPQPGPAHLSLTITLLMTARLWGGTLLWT
# Method in brief: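 Competitive displacement of a 10 nM biotinylated peptide from HEC-265 cells (1 h, 4 °C, PBS/1% BSA), detected via APC-streptavidin by flow cytometry. pIC50 from four-parameter logistic fit of median fluorescence versus concentration.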
Compound,Kd [1] [nM],IC50 [2] [nM],Kd ([1]; single cycle kinetics) [nM],pKD CAT ([1]; single cycle kinetics),pIC50 CAT [2]
"CC[C@H](C)[C@@H]1NC(=O)[C@@H](C)NC(=O)[C@@H]2CCCN2C(=O)[C@H](Cc2ccccc2)NC(=O)[C@H](Cc2ccc(O)cc2)NC(=O)[C@H](CCCCNC(=O)CN2CCN(CC(=O)O)CCN(CC(=O)O)CCN(CC(=O)O)CC2)NC(=O)[C@H](CCCNC(=N)N)NC(=O)[C@@H](NC(=O)[C@H](CC(C)C)NC(C)=O)CSSC[C@@H](C(N)=O)NC(=O)[C@H](CC(C)C)NC1=O [UPAR-162, Ac-Leu-[Cys-Arg-Lys(DOTA)-Tyr-Phe-Pro-ala-Ile-Leu-Cys]-NH2] (Ac-LCRK(DOTA)YFP[dA]ILC-NH2; disulfide 2-11)",< 1.58,≤ 10,,,
"CC(C)CCC(=O)N[C@H]1CSSC[C@@H](C(N)=O)NC(=O)[C@H](CC(C)C)NC(=O)[C@H](C2CCCC2)NC(=O)[C@@H](C)NC(=O)[C@@H]2CCCN2C(=O)[C@H](Cc2ccccc2)NC(=O)[C@H](Cc2ccc(O)cc2)NC(=O)[C@H](CCC(N)=O)NC(=O)[C@H](CCCNC(N)=O)NC1=O [UPAR-349, iHex-[Cys-Cit-Gln-Tyr-Phe-Pro-ala-Cpg-Leu-Cys]-NH2] ({Pentanoyl(4-Me)}-C[Cit]QYFP[dA][Gly(cPent)]LC-NH2; disulfide 1-10)",,≤ 10,1.58 to 10,,
"CC[C@H](C)[C@@H]1NC(=O)[C@H](CCCNC(=N)N)NC(=O)[C@@H]2CCCN2C(=O)[C@H](Cc2ccccc2)NC(=O)[C@H](Cc2ccc(O)cc2)NC(=O)[C@H](CCCCNC(=O)CN2CCN(CC(=O)O)CCN(CC(=O)O)CCN(CC(=O)O)CC2)NC(=O)[C@H](CCCNC(N)=O)NC(=O)[C@@H](NC(=O)[C@H](CC(C)C)NC(=O)[C@H](CC(=O)O)NC(C)=O)CSSC[C@@H](C(N)=O)NC(=O)[C@H](CC(C)C)NC1=O [UPAR-423, Ac-Asp-Leu-[Cys-Cit-Lys(DOTA)-Tyr-Phe-Pro-Arg-Ile-Leu-Cys]-NH2] (Ac-DLC[Cit]K(DOTA)YFPRILC-NH2; disulfide 3-12)",,≤ 10,< 1.58,,
"CCCCC(=O)N[C@H]1CSSC[C@@H](C(N)=O)NC(=O)[C@H](CCC)NC(=O)[C@H]([C@@H](C)CC)NC(=O)[C@@H]2C[C@@H](O)CN2C(=O)[C@@H]2CCCN2C(=O)[C@H](Cc2ccccc2)NC(=O)[C@H](Cc2c[nH]c3ccccc23)NC(=O)[C@H](CCC(N)=O)NC(=O)[C@H](CCCNC(=N)N)NC1=O [UPAR-401, Pent-[Cys-Arg-Gln-Trp-Phe-Pro-Hyp-Ile-Nva-Cys]-NH2] (Pentanoyl-CRQWFP[Hyp]I[Nva]C-NH2; disulfide 1-10)",,≤ 10,< 1.58,,
"CCCCC(=O)N[C@H]1CSSC[C@@H](C(N)=O)NC(=O)[C@H](CCC)NC(=O)[C@H]([C@@H](C)CC)NC(=O)[C@@H]2C[C@@H](O)CN2C(=O)[C@@H]2CCCN2C(=O)C2(Cc3ccccc3C2)NC(=O)[C@H](Cc2ccc(O)cc2)NC(=O)[C@H](CCCCNC(=O)CN2CCN(CC(=O)O)CCN(CC(=O)O)CCN(CC(=O)O)CC2)NC(=O)[C@H](CCCNC(N)=O)NC1=O [UPAR-417, Pent-[Cys-Cit-Lys(DOTA)-Tyr-Aic-Pro-Hyp-Ile-Nva-Cys]-NH2] (Pentanoyl-C[Cit]K(DOTA)Y[Aic]P[Hyp]I[Nva]C-NH2; disulfide 1-10)",,≥ 126,> 100,,
"CCCCOC(=O)N[C@H]1CSSC[C@@H](C(N)=O)NC(=O)[C@H](CCC)NC(=O)[C@H]([C@@H](C)CC)NC(=O)[C@@H]2C[C@@H](O)CN2C(=O)[C@@H]2C[C@H](F)CN2C(=O)[C@H](Cc2ccccc2)NC(=O)[C@H](Cc2ccc(O)cc2)NC(=O)[C@H](CCNC(=O)CN2CCN(CC(=O)O)CCN(CC(=O)O)CCN(CC(=O)O)CC2)NC(=O)[C@H]([C@@H](C)O)NC1=O [UPAR-228, Butoc-[Cys-Thr-Dab(DOTA)-Tyr-Phe-4Cfp-Hyp-Ile-Nva-Cys]-NH2] (Butoxycarbonyl-CT[Dab](DOTA)YF[Pro(cis-4-F)][Hyp]I[Nva]C-NH2; disulfide 1-10)",< 1.58,≤ 10,,,
"CCCCCC(=O)N[C@@H](CCCCNC(=O)CN1CCN(CC(=O)O)CCN(CC(=O)O)CCN(CC(=O)O)CC1)C(=O)N[C@@H](CC(C)C)C(=O)N[C@H]1CSSC[C@@H](C(N)=O)NC(=O)[C@H](CC(C)C)NC(=O)[C@H]([C@@H](C)CC)NC(=O)[C@H](C)NC(=O)[C@@H]2CCCN2C(=O)[C@H](Cc2ccccc2)NC(=O)[C@H](Cc2ccc(O)cc2)NC(=O)[C@H](CCSC)NC(=O)[C@H](CCCNC(=N)N)NC1=O [UPAR-140, Hex-Lys(DOTA)-Leu-[Cys-Arg-Met-Tyr-Phe-Pro-Ala-Ile-Leu-Cys]-NH2] (Hexanoyl-K(DOTA)LCRMYFPAILC-NH2; disulfide 3-12)",< 1.58,≤ 10,,,
"CCCCC(=O)N[C@H]1CSSC[C@@H](C(N)=O)NC(=O)[C@H](CCC)NC(=O)[C@H]([C@@H](C)CC)NC(=O)[C@H](CCCCN)N(C)C(=O)[C@@H]2CCCN2C(=O)[C@H](Cc2ccccc2)NC(=O)[C@H](Cc2ccc(O)cc2)NC(=O)[C@H](CCCCNC(=O)CN2CCN(CC(=O)O)CCN(CC(=O)O)CCN(CC(=O)O)CC2)NC(=O)[C@H](CCCNC(N)=O)NC1=O [UPAR-173, Pent-[Cys-Cit-Lys(DOTA)-Tyr-Phe-Pro-Nmk-Ile-Nva-Cys]-NH2] (Pentanoyl-C[Cit]K(DOTA)YFP[NMeK]I[Nva]C-NH2; disulfide 1-10)",> 100,≥ 126,,,
Pent-[Cys-Cit-Lys(GdDOTA)-Tyr-Phe-Pro-4Tfp-Ile-Nva-Cys]-NH2 (Pentanoyl-C[Cit]K(GdDOTA)YFP[Pro(trans-4-F)]I[Nva]C-NH2; disulfide 1-10; not fully specified; also: Gd(III) complexed by DOTA) [UPAR-435],,,,A (pKD values ≥ 8.8),A (pIC50 values ≥8.0)
"CCCCC(=O)N[C@H]1CSSC[C@@H](C(N)=O)NC(=O)[C@H](CCC)NC(=O)[C@H]([C@@H](C)CC)NC(=O)[C@@H](CC(=O)O)NC(=O)[C@@H]2CCCN2C(=O)[C@H](Cc2ccccc2)NC(=O)[C@H](Cc2ccc(O)cc2)NC(=O)[C@H](CCC(N)=O)NC(=O)[C@H](CCCNC(=N)N)NC1=O [UPAR-161, Pent-[Cys-Arg-Gln-Tyr-Phe-Pro-asp-Ile-Nva-Cys]-NH2] (Pentanoyl-CRQYFP[dD]I[Nva]C-NH2; disulfide 1-10)",10 to 100,≤ 10,,,
"CC[C@H](C)[C@@H]1NC(=O)[C@@H](C)NC(=O)[C@@H]2CCCN2C(=O)[C@H](Cc2ccccc2)NC(=O)[C@H](Cc2ccc(O)cc2)NC(=O)C(C)(C)NC(=O)[C@H](CCCNC(N)=O)NC(=O)[C@@H](NC(=O)CCC(C)C)CSSC[C@@H](C(N)=O)NC(=O)[C@H](CC(C)C)NC1=O [UPAR-269, iHex-[Cys-Cit-Aib-Tyr-Phe-Pro-ala-Ile-Leu-Cys]-NH2] ({Pentanoyl(4-Me)}-C[Cit][Aib]YFP[dA]ILC-NH2; disulfide 1-10)",1.58 to 10,12.6 to 31.6,,,
"CCCCC(=O)N[C@H]1CSSC[C@@H](C(N)=O)NC(=O)[C@H](CCC)NC(=O)[C@H]([C@@H](C)CC)NC(=O)[C@H](CCCN)N(C)C(=O)[C@@H]2CCCN2C(=O)[C@H](Cc2ccccc2)NC(=O)[C@H](Cc2ccc(O)cc2)NC(=O)[C@H](CCCCNC(=O)CN2CCN(CC(=O)O)CCN(CC(=O)O)CCN(CC(=O)O)CC2)NC(=O)[C@H](CCCNC(N)=O)NC1=O [UPAR-265, Pent-[Cys-Cit-Lys(DOTA)-Tyr-Phe-Pro-Nmo-Ile-Nva-Cys]-NH2] (Pentanoyl-C[Cit]K(DOTA)YFP[NMeOrn]I[Nva]C-NH2; disulfide 1-10)",> 100,39.8 to 100,,,
"CC[C@H](C)[C@@H]1NC(=O)[C@@H](C)NC(=O)[C@@H]2CCCN2C(=O)[C@H](Cc2ccccc2)NC(=O)[C@H](Cc2ccc(O)cc2)NC(=O)[C@H](CCCNC(N)=O)NC(=O)[C@H](CCCNC(N)=O)NC(=O)[C@@H](NC(=O)CCC(C)C)CSSC[C@@H](C(N)=O)NC(=O)[C@H](CC(C)C)NC1=O [UPAR-445, iHex-[Cys-Cit-Cit-Tyr-Phe-Pro-ala-Ile-Leu-Cys]-NH2] ({Pentanoyl(4-Me)}-C[Cit][Cit]YFP[dA]ILC-NH2; disulfide 1-10)",,≤ 10,< 1.58,,
"CC[C@H](C)[C@@H]1NC(=O)[C@@H](C)NC(=O)[C@@H]2CCCN2C(=O)[C@H](Cc2ccccc2)NC(=O)[C@H](Cc2ccc(O)cc2)NC(=O)[C@H](CCC(N)=O)NC(=O)[C@@H](C)NC(=O)[C@@H](NC(=O)CCC(C)C)CSSC[C@@H](C(N)=O)NC(=O)[C@H](CC(C)C)NC1=O [UPAR-231, iHex-[Cys-ala-Gln-Tyr-Phe-Pro-ala-Ile-Leu-Cys]-NH2] ({Pentanoyl(4-Me)}-C[dA]QYFP[dA]ILC-NH2; disulfide 1-10)",10 to 100,39.8 to 100,,,
"CC[C@H](C)[C@@H]1NC(=O)[C@@H](C)NC(=O)[C@@H]2CCCN2C(=O)[C@H](Cc2ccccc2)NC(=O)[C@H](Cc2ccc(O)cc2)NC(=O)[C@H](CCC(N)=O)NC(=O)[C@H](CCCNC(=N)N)N(C)C(=O)[C@@H](NC(=O)CCC(C)C)CSSC[C@@H](C(N)=O)NC(=O)[C@H](CC(C)C)NC1=O [UPAR-287, iHex-[Cys-Nmr-Gln-Tyr-Phe-Pro-ala-Ile-Leu-Cys]-NH2] ({Pentanoyl(4-Me)}-C[NMeR]QYFP[dA]ILC-NH2; disulfide 1-10)",> 100,≥ 126,,,
"CCCCC(=O)N[C@H]1CSSC[C@@H](C(N)=O)NC(=O)[C@H](CCC)NC(=O)[C@H]([C@@H](C)CC)NC(=O)[C@@H]2C[C@@H](O)CN2C(=O)[C@@H]2CCCN2C(=O)[C@H](Cc2cccnc2)NC(=O)[C@H](Cc2ccc(O)cc2)NC(=O)[C@H](CCCCNC(=O)CN2CCN(CC(=O)O)CCN(CC(=O)O)CCN(CC(=O)O)CC2)NC(=O)[C@H](CCCNC(N)=O)NC1=O [UPAR-253, Pent-[Cys-Cit-Lys(DOTA)-Tyr-Mpa-Pro-Hyp-Ile-Nva-Cys]-NH2] (Pentanoyl-C[Cit]K(DOTA)Y[3Pal]P[Hyp]I[Nva]C-NH2; disulfide 1-10)",1.58 to 10,≤ 10,,,
